Legend:
[1] = tested on: Rattus norvegicus; experiment: Anti-hypertensive activity in Wistar rat assessed as systolic blood pressure at 10 mg/kg, iv after 5 mins (reference value: 110 to 124.6 mmHg); assay type: functional
[2] = tested on: Rattus norvegicus; experiment: Anti-hypertensive activity in Wistar rat assessed as diastolic blood pressure at 10 mg/kg, iv after 5 mins (reference value: 77.15 to 94.4 mmHg); assay type: functional
[3] = tested on: Rattus norvegicus; experiment: Anti-hypertensive activity in Wistar rat assessed as systolic blood pressure at 10 mg/kg, iv after 15 mins (reference value: 110 to 124.6 mmHg); assay type: functional
[4] = tested on: Rattus norvegicus; experiment: Anti-hypertensive activity in Wistar rat assessed as diastolic blood pressure at 10 mg/kg, iv after 15 mins (reference value: 77.15 to 94.4 mmHg); assay type: functional
[5] = tested on: Rattus norvegicus; experiment: Anti-hypertensive activity in Wistar rat assessed as systolic blood pressure at 10 mg/kg, iv after 30 mins (reference value: 110 to 124.6 mmHg); assay type: functional
[6] = tested on: Rattus norvegicus; experiment: Anti-hypertensive activity in Wistar rat assessed as diastolic blood pressure at 10 mg/kg, iv after 30 mins (reference value: 77.15 to 94.4 mmHg); assay type: functional
[7] = tested on: Rattus norvegicus; experiment: Anti-hypertensive activity in Wistar rat assessed as systolic blood pressure at 10 mg/kg, iv after 60 mins (reference value: 110 to 124.6 mmHg); assay type: functional
[8] = tested on: Rattus norvegicus; experiment: Anti-hypertensive activity in Wistar rat assessed as diastolic blood pressure at 10 mg/kg, iv after 60 mins (reference value: 77.15 to 94.4 mmHg); assay type: functional
[9] = tested on: Rattus norvegicus; experiment: Anti-hypertensive activity in Wistar rat assessed as systolic blood pressure at 10 mg/kg, iv after 120 mins (reference value: 110 to 124.6 mmHg); assay type: functional
[10] = tested on: Rattus norvegicus; experiment: Anti-hypertensive activity in Wistar rat assessed as diastolic blood pressure at 10 mg/kg, iv after 120 mins (reference value: 77.15 to 94.4 mmHg); assay type: functional
[11] = tested on: Rattus norvegicus; experiment: Anti-hypertensive activity in Wistar rat assessed as systolic blood pressure at 10 mg/kg, iv after 150 mins (reference value: 110 to 124.6 mmHg); assay type: functional
[12] = tested on: Rattus norvegicus; experiment: Anti-hypertensive activity in Wistar rat assessed as diastolic blood pressure at 10 mg/kg, iv after 150 mins (reference value: 77.15 to 94.4 mmHg); assay type: functional
[13] = tested on: Rattus norvegicus; experiment: Anti-hypertensive activity in Wistar rat assessed as systolic blood pressure at 10 mg/kg, iv after 180 mins (reference value: 110 to 124.6 mmHg); assay type: functional
[14] = tested on: Rattus norvegicus; experiment: Anti-hypertensive activity in Wistar rat assessed as diastolic blood pressure at 10 mg/kg, iv after 180 mins (reference value: 77.15 to 94.4 mmHg); assay type: functional
[15] = tested on: Rattus norvegicus; experiment: Anti-hypertensive activity in iv dosed Wistar rat assessed as decrease in blood pressure up to 180 mins; assay type: functional, organism-based
[16] = tested on: Mus musculus; experiment: Acute toxicity in Swiss mouse assessed as mortality up to 2000 mg/kg, po measured up to 13 days post dose; assay type: organism-based; details: in vivo, 312 h
[17] = tested on: Mus musculus; experiment: Acute toxicity in Swiss mouse assessed as change in general appearance up to 2000 mg/kg, po measured up to 13 days post dose; assay type: organism-based; details: in vivo, 312 h
[18] = tested on: Mus musculus; experiment: Acute toxicity in Swiss mouse assessed as change in body weight up to 2000 mg/kg, po measured once in a week up to 13 days post dose; assay type: organism-based; details: in vivo, 312 h
[19] = tested on: Mus musculus; experiment: Acute toxicity in Swiss mouse assessed as effect on feed up to 2000 mg/kg, po measured up to 13 days post dose; assay type: organism-based; details: in vivo, 312 h
[20] = tested on: Mus musculus; experiment: Acute toxicity in Swiss mouse assessed as effect on water consumption up to 2000 mg/kg, po measured up to 13 days post dose; assay type: organism-based; details: in vivo, 312 h
[21] = tested on: Mus musculus; experiment: Acute toxicity in Swiss mouse assessed as WBC count up to 2000 mg/kg, po measured on day 14 post dose (reference value: 8.35 +/- 4.53 10^3/microL); assay type: organism-based; details: in vivo
[22] = tested on: Mus musculus; experiment: Acute toxicity in Swiss mouse assessed as RBC count up to 2000 mg/kg, po measured on day 14 post dose (reference value: 8.97 +/- 3.15 10^6/microL); assay type: organism-based; details: in vivo
[23] = tested on: Mus musculus; experiment: Acute toxicity in Swiss mouse assessed as hemoglobin level up to 2000 mg/kg, po measured on day 14 post dose (reference value: 12.342 +/- 4.42 g/dl); assay type: organism-based; details: in vivo
[24] = tested on: Mus musculus; experiment: Acute toxicity in Swiss mouse assessed as hematocrit up to 2000 mg/kg, po measured on day 14 post dose (reference value: 40.114 +/- 14.74%); assay type: organism-based; details: in vivo
[25] = tested on: Mus musculus; experiment: Acute toxicity in Swiss mouse assessed as mean corpuscular volume up to 2000 mg/kg, po measured on day 14 post dose (reference value: 44.85 +/- 17.65 fL); assay type: organism-based; details: in vivo
[26] = tested on: Mus musculus; experiment: Acute toxicity in Swiss mouse assessed as mean corpuscular hemoglobin up to 2000 mg/kg, po measured on day 14 post dose (reference value: 13.78 +/- 5.29 pg); assay type: organism-based; details: in vivo
[27] = tested on: Mus musculus; experiment: Acute toxicity in Swiss mouse assessed as platelet level up to 2000 mg/kg, po measured on day 14 post dose (reference value: 1542.71 +/- 474.34 10^3/microL); assay type: organism-based; details: in vivo
[28] = tested on: Mus musculus; experiment: Acute toxicity in Swiss mouse assessed as neutrophil level up to 2000 mg/kg, po measured on day 14 post dose (reference value: 14.56%); assay type: organism-based; details: in vivo
[29] = tested on: Mus musculus; experiment: Acute toxicity in Swiss mouse assessed as lymphocytes level up to 2000 mg/kg, po measured on day 14 post dose (reference value: 79.433%); assay type: organism-based; details: in vivo
[30] = tested on: Mus musculus; experiment: Acute toxicity in Swiss mouse assessed as monocytes level up to 2000 mg/kg, po measured on day 14 post dose (reference value: 3.66%); assay type: organism-based; details: in vivo
[31] = tested on: Mus musculus; experiment: Acute toxicity in Swiss mouse assessed as eosinophil level up to 2000 mg/kg, po measured on day 14 post dose (reference value: 2.233%); assay type: organism-based; details: in vivo
[32] = tested on: Mus musculus; experiment: Acute toxicity in Swiss mouse assessed as basophil level up to 2000 mg/kg, po measured on day 14 post dose (reference value: 0.1%); assay type: organism-based; details: in vivo
[33] = tested on: Mus musculus; experiment: Acute toxicity in Swiss mouse assessed as serum urea level up to 2000 mg/kg, po measured on day 14 post dose (reference value: 55.157 +/- 2.769 mg/dl); assay type: organism-based; details: in vivo
[34] = tested on: Mus musculus; experiment: Acute toxicity in Swiss mouse assessed as serum creatinine level up to 2000 mg/kg, po measured on day 14 post dose (reference value: 0.418 +/- 0.0259 mg/dl); assay type: organism-based; details: in vivo
[35] = tested on: Mus musculus; experiment: Acute toxicity in Swiss mouse assessed as serum glucose level up to 2000 mg/kg, po measured on day 14 post dose (reference value: 105.78 +/- 5.217 mg/dl); assay type: organism-based; details: in vivo
[36] = tested on: Mus musculus; experiment: Acute toxicity in Swiss mouse assessed as serum triglyceride level up to 2000 mg/kg, po measured on day 14 post dose (reference value: […]); assay type: organism-based; details: in vivo
[37] = tested on: Mus musculus; experiment: Acute toxicity in Swiss mouse assessed as uric acid level in serum up to 2000 mg/kg, po measured on day 14 post dose (reference value: […]); assay type: organism-based; details: in vivo
[38] = tested on: Mus musculus; experiment: Acute toxicity in Swiss mouse assessed as total protein level in serum up to 2000 mg/kg, po measured on day 14 post dose (reference value: 4.844 +/- 0.222 g/dl); assay type: organism-based; details: in vivo
[39] = tested on: Mus musculus; experiment: Acute toxicity in Swiss mouse assessed as AST level in serum up to 2000 mg/kg, po measured on day 14 post dose (reference value: 162.53 +/- 5.455 IU/L); assay type: organism-based; details: in vivo
[40] = tested on: Mus musculus; experiment: Acute toxicity in Swiss mouse assessed as ALT level in serum up to 2000 mg/kg, po measured on day 14 post dose (reference value: 49.87 +/- 3.277 IU/L); assay type: organism-based; details: in vivo
[41] = tested on: Mus musculus; experiment: Acute toxicity in Swiss mouse assessed as cholesterol level in serum up to 2000 mg/kg, po measured on day 14 post dose (reference value: […]); assay type: organism-based; details: in vivo

Compound: O=C(c1ccccc1Nc1ccncc1)N1CC[C@H](O)C1
- Activity [1]: 88 mmHg
- Activity [2]: 66.01 mmHg
- Activity [3]: 82.41 mmHg
- Activity [4]: 64.33 mmHg
- Activity [5]: 80.19 mmHg
- Activity [6]: 62.55 mmHg
- Activity [7]: 79.29 mmHg
- Activity [8]: 64.09 mmHg
- Activity [9]: 85.46 mmHg
- Activity [10]: 69.81 mmHg
- Activity [11]: 87.13 mmHg
- Activity [12]: 73 mmHg
- Activity [13]: 108.8 mmHg
- Activity [14]: 79.06 mmHg
- Activity [15]: Dose-dependent effect
- Activity [16]: Non-Toxic
- Activity [17]: Non-Toxic
- Activity [18]: Non-Toxic
- Activity [19]: Non-Toxic
- Activity [20]: Non-Toxic
- Activity [21]: 10.185 ×10³ /uL
- Activity [22]: 9.684 ×10⁶ /uL
- Activity [23]: 13.342 g/dL
- Activity [24]: 40.1%
- Activity [25]: 41.3 fL
- Activity [26]: 13.77 pg
- Activity [27]: 1458.42 ×10³ /uL
- Activity [28]: 8.828%
- Activity [29]: 84.514%
- Activity [30]: 3.128%
- Activity [31]: 3.457%
- Activity [32]: 0.0714%
- Activity [33]: 54.885 mg/dL
- Activity [34]: 0.435 mg/dL
- Activity [35]: 111.51 mg/dL
- Activity [36]: 89.6 mg/dL
- Activity [37]: 2.81 mg/dL
- Activity [38]: 5.224 g/dL
- Activity [39]: 145.84 IU/L
- Activity [40]: 50.587 IU/L
- Activity [41]: 83 mg/dL

Compound: CCCCCCc1ccc(-c2cn([C@@H]3CCN(C(=O)c4ccccc4Nc4ccncc4)C3)nn2)cc1
- Activity [1]: 94.4 mmHg
- Activity [2]: 74.8 mmHg
- Activity [3]: 104.9 mmHg
- Activity [4]: 81.7 mmHg
- Activity [5]: 111.6 mmHg
- Activity [6]: 83.6 mmHg
- Activity [7]: 111.9 mmHg
- Activity [8]: 83.25 mmHg
- Activity [9]: 118.9 mmHg
- Activity [10]: 91.75 mmHg
- Activity [11]: 118.7 mmHg
- Activity [12]: 92.8 mmHg
- Activity [13]: 119.9 mmHg
- Activity [14]: 91 mmHg

Compound: O=C(c1ccccc1Nc1ccncc1)N1CC[C@@H](n2cc(-c3ccc(F)cc3)nn2)C1
- Activity [1]: 46.6 mmHg
- Activity [2]: 42.9 mmHg
- Activity [3]: 106.2 mmHg
- Activity [4]: 73.8 mmHg
- Activity [5]: 108.6 mmHg
- Activity [6]: 84.63 mmHg
- Activity [7]: 117.6 mmHg
- Activity [8]: 84.8 mmHg
- Activity [9]: 122.6 mmHg
- Activity [10]: 86.3 mmHg
- Activity [11]: 124.6 mmHg
- Activity [12]: 90.3 mmHg
- Activity [13]: 128.9 mmHg
- Activity [14]: 90.58 mmHg

Compound: C[Si](C)(C)O[C@@H]1CCNC1
- Activity [1]: 119.9 mmHg
- Activity [2]: 84.74 mmHg
- Activity [3]: 119.7 mmHg
- Activity [4]: 85.42 mmHg
- Activity [5]: 119.9 mmHg
- Activity [6]: 87.98 mmHg
- Activity [7]: 117.6 mmHg
- Activity [8]: 83.9 mmHg
- Activity [9]: 118.5 mmHg
- Activity [10]: 89.49 mmHg
- Activity [11]: 122.4 mmHg
- Activity [12]: 88.4 mmHg
- Activity [13]: 121.6 mmHg
- Activity [14]: 84.75 mmHg

Compound: O[C@H]1CCN(Cc2ccccc2Nc2ccncc2)C1
- Activity [1]: 120.4 mmHg
- Activity [2]: 77.06 mmHg
- Activity [3]: 119.9 mmHg
- Activity [4]: 73.74 mmHg
- Activity [5]: 120.6 mmHg
- Activity [6]: 75.5 mmHg
- Activity [7]: 115.7 mmHg
- Activity [8]: 81.18 mmHg
- Activity [9]: 118.2 mmHg
- Activity [10]: 75.97 mmHg
- Activity [11]: 122.9 mmHg
- Activity [12]: 76.6 mmHg
- Activity [13]: 124.4 mmHg
- Activity [14]: 83.32 mmHg

Source: ChEMBL document CHEMBL3877319, “Synthesis of Ofornine mimics from natural product l-vasicine as anti-hypertensive agents” (Bioorg Med Chem, 2017)
